Assay results taken from patent US11541055B2, “Inhibitors of human immunodeficiency virus replication” (ViiV Healthcare UK (No. 5) LIMITED, priority 2018, dated 2023).

How the values were obtained:
[1] = tested on: recombinant NL4-3 virus (Renilla luciferase) in MT-2 cells; assay: HIV cell culture assay (antiviral activity, luciferase readout); assay type: cell-based; conditions: Renilla, NL43
Method: HIV cell culture assay—MT-2 cells, 293T cells and the proviral DNA clone of NL4-3 virus were obtained from the NIH AIDS Research and Reference Reagent Program. MT-2 cells were propagated in RPMI 1640 media supplemented with 10% heat inactivated fetal bovine serum (FBS), […]. The 293T cells were propagated in DMEM media supplemented with 10% heat inactivated FBS, […] penicillin G and […] streptomycin. A recombinant NL40.3 proviral clone, in which a section of the nef gene was replaced with the Renilla luciferase gene, was used to make the reference virus used in these studies. The recombinant virus was prepared through transfection of the recombinant NL4-3 proviral clone into 293T cells using Transit-293 Transfection Reagent from Minis Bio LLC (Madison, Wis.). Supernatent was harvested after 2-3 days and the amount of virus present was titered in MT-2 cells using luciferase enzyme activity as a marker by measuring luciferase enzyme activity. Luciferase was quantitated using the EnduRen Live Cell Substrate from Promega (Madison, Wis.). Antiviral activities of compounds toward the recombinant virus were quantified by measuring luciferase activity in MT-2 cells infected for 4-5 days with the recombinant virus in the presence of serial dilutions of the compound.
The 50% effective concentration (EC50) was calculated by using the exponential form of the median effect equation where (Fa)=1/[1+(ED50/drug conc.)m] (Johnson V A, Byington R T. Infectivity Assay. In Techniques in HIV Research. ed. Aldovini A, Walker B D. 71-76. New York: Stockton Press. 1990). The 50% inhibitory concentration (EC50) was calculated by using the exponential form of the median effect equation where percent inhibition=1/[1+(EC50/drug concentration)m], where m is a parameter that reflects the slope of the concentration-response curve.

[2] = Compound cytotoxicity, XTT-based colorimetric assay; assay type: cell-based; conditions: human; uninfected MT2 cells, day 4, XTT
Method: Compound cytotoxicity and the corresponding CC50 values were determined using the same protocol as described in the antiviral assay except that uninfected cells were used. Cytotoxicity was assessed on day 4 in uninfected MT2 cells by using a XTT (2,3-bis[2-Methoxy-4-nitro-5-sulfophenyl]-2H-tetrazolium-5-carboxyanilide inner salt)-based colorimetric assay (Sigma-Aldrich, St Louis, Mo.).

Compound | EC50 [1] | CC50 at 4 days [2]
COc1ccc(-c2ccc3c(=O)n(-c4ccc(Cl)c5c(NS(=O)(=O)C6CC6)nn(CC(F)F)c45)c([C@H](Cc4cc(F)cc(F)c4)NC(=O)Cn4nc(C(F)F)c5c4C(F)(F)[C@@H]4C[C@H]54)nc3c2)nn1 (atropisomer, axis not shown; (P)) [Example 90, N—((S)-1-((3P)-3-(4-chloro-3-(cyclopropanesulfonamido)-1-(2,2-difluoroethyl)-1H-indazol-7-yl)-7-(6-methoxypyridazin-3-yl)-4-oxo-3,4-dihydroquinazolin-2-yl)-2-(3,5-difluorophenyl)ethyl)-2-((3bS,4aR)-3-(difluoromethyl)-5,5-difluoro-3b,4,4a,5-tetrahydro-1H-cyclopropa[3,4]cyclopenta[1,2-c]pyrazol-1-yl)acetamide] | 0.085 nM | > 500 nM
COc1nc2ccccc2nc1-c1ccc2c(=O)n(-c3ccc(Cl)c4c(NS(C)(=O)=O)nn(C)c34)c([C@H](Cc3cc(F)cc(F)c3)NC(=O)Cn3nc(C(F)F)c4c3C(F)(F)[C@@H]3C[C@H]43)nc2c1 (atropisomer, axis not shown; (P)) [Example 19, N—((S)-1-((3P)-3-(4-chloro-1-methyl-3-(methylsulfonamido)-1H-indazol-7-yl)-7-(3-methoxyquinoxalin-2-yl)-4-oxo-3,4-dihydroquinazolin-2-yl)-2-(3,5-difluorophenyl)ethyl)-2-((3bS,4aR)-3-(difluoromethyl)-5,5-difluoro-3b,4,4a,5-tetrahydro-1H-cyclopropa[3,4]cyclopenta[1,2-c]pyrazol-1-yl)acetamide] | 5.5 nM | > 500 nM
Cc1cc(C(C)C)nc(-c2ccc3c(=O)n(-c4ccc(Cl)c5c(NS(C)(=O)=O)nn(C)c45)c([C@H](Cc4cc(F)cc(F)c4)NC(=O)Cn4nc(C(F)F)c5c4C(F)(F)[C@@H]4C[C@H]54)nc3c2)n1 (atropisomer, axis not shown; (P)) [Example 37, N—((S)-1-((3P)-3-(4-chloro-1-methyl-3-(methylsulfonamido)-1H-indazol-7-yl)-7-(4-isopropyl-6-methylpyrimidin-2-yl)-4-oxo-3,4-dihydroquinazolin-2-yl)-2-(3,5-difluorophenyl)ethyl)-2-((3bS,4aR)-3-(difluoromethyl)-5,5-difluoro-3b,4,4a,5-tetrahydro-1H-cyclopropa[3,4]cyclopenta[1,2-c]pyrazol-1-yl)acetamide] | 0.16 nM | > 500 nM
CCc1cc(C)nc(-c2ccc3c(=O)n(-c4ccc(Cl)c5c(NS(C)(=O)=O)nn(C)c45)c([C@H](Cc4cc(F)cc(F)c4)NC(=O)Cn4nc(C(F)F)c5c4C(F)(F)[C@@H]4C[C@H]54)nc3c2)n1 (atropisomer, axis not shown; (P)) [Example 36, N—((S)-1-((3P)-3-(4-chloro-1-methyl-3-(methylsulfonamido)-1H-indazol-7-yl)-7-(4-ethyl-6-methylpyrimidin-2-yl)-4-oxo-3,4-dihydroquinazolin-2-yl)-2-(3,5-difluorophenyl)ethyl)-2-((3bS,4aR)-3-(difluoromethyl)-5,5-difluoro-3b,4,4a,5-tetrahydro-1H-cyclopropa[3,4]cyclopenta[1,2-c]pyrazol-1-yl)acetamide] | 0.087 nM | > 500 nM
Cc1nc(C)c(C)c(-c2ccc3c(=O)n(-c4ccc(Cl)c5c(NS(=O)(=O)C6CC6)nn(CC(F)F)c45)c([C@H](Cc4cc(F)cc(F)c4)NC(=O)Cn4nc(C(F)F)c5c4C(F)(F)[C@@H]4C[C@H]54)nc3c2)n1 (atropisomer, axis not shown; (P)) [Example 92, N—((S)-1-((3P)-3-(4-chloro-3-(cyclopropanesulfonamido)-1-(2,2-difluoroethyl)-1H-indazol-7-yl)-4-oxo-7-(2,5,6-trimethylpyrimidin-4-yl)-3,4-dihydroquinazolin-2-yl)-2-(3,5-difluorophenyl)ethyl)-2-((3bS,4aR)-3-(difluoromethyl)-5,5-difluoro-3b,4,4a,5-tetrahydro-1H-cyclopropa[3,4]cyclopenta[1,2-c]pyrazol-1-yl)acetamide] | 0.1 nM | > 500 nM
CC(C)c1nccnc1-c1ccc2c(=O)n(-c3ccc(Cl)c4c(NS(C)(=O)=O)nn(C)c34)c([C@H](Cc3cc(F)cc(F)c3)NC(=O)Cn3nc(C(F)F)c4c3C(F)(F)[C@@H]3C[C@H]43)nc2c1 (atropisomer, axis not shown; (P)) [Example 16, N—((S)-1-((3P)-3-(4-chloro-1-methyl-3-(methylsulfonamido)-1H-indazol-7-yl)-7-(3-isopropylpyrazin-2-yl)-4-oxo-3,4-dihydroquinazolin-2-yl)-2-(3,5-difluorophenyl)ethyl)-2-((3bS,4aR)-3-(difluoromethyl)-5,5-difluoro-3b,4,4a,5-tetrahydro-1H-cyclopropa[3,4]cyclopenta[1,2-c]pyrazol-1-yl)acetamide] | 0.12 nM | > 500 nM
COc1ncc(-c2ccc3c(=O)n(-c4ccc(Cl)c5c(NS(C)(=O)=O)nn(CC(F)F)c45)c([C@H](Cc4cc(F)cc(F)c4)NC(=O)Cn4nc(C(F)F)c5c4C(F)(F)[C@@H]4C[C@H]54)nc3c2)cn1 (atropisomer, axis not shown) [Example 125, N-[(1S)-1-{3-[4-chloro-1-(2,2-difluoroethyl)-3-methanesulfonamido-1H-indazol-7-yl]-7-(2-methoxypyrimidin-5-yl)-4-oxo-3,4-dihydroquinazolin-2-yl}-2-(3,5-difluorophenyl)ethyl]-2-[(2S,4R)-9-(difluoromethyl)-5,5-difluoro-7,8-diazatricyclo[4.3.0.0^2,^4]nona-1(6),8-dien-7-yl]acetamide] | 0.06 nM | > 500 nM
Cn1nc(NS(C)(=O)=O)c2c(Cl)ccc(-n3c([C@H](Cc4cc(F)cc(F)c4)NC(=O)Cn4nc(C(F)F)c5c4C(F)(F)[C@@H]4C[C@H]54)nc4cc(-c5nccc(C(F)(F)F)n5)ccc4c3=O)c21 (atropisomer, axis not shown; (P)) [Example 3, N—((S)-1-((3P)-3-(4-chloro-1-methyl-3-(methylsulfonamido)-1H-indazol-7-yl)-4-oxo-7-(4-(trifluoromethyl)pyrimidin-2-yl)-3,4-dihydroquinazolin-2-yl)-2-(3,5-difluorophenyl)ethyl)-2-((3bS,4aR)-3-(difluoromethyl)-5,5-difluoro-3b,4,4a,5-tetrahydro-1H-cyclopropa[3,4]cyclopenta[1,2-c]pyrazol-1-yl)acetamide] | 0.1 nM | > 500 nM
CN(c1ccccc1-c1ccc2c(=O)n(-c3ccc(Cl)c4c(NS(C)(=O)=O)nn(C)c34)c([C@H](Cc3cc(F)cc(F)c3)NC(=O)Cn3nc(C(F)F)c4c3C(F)(F)[C@@H]3C[C@H]43)nc2c1)S(C)(=O)=O (atropisomer, axis not shown; (P)) [Example 27, N—((S)-1-((3P)-3-(4-chloro-1-methyl-3-(methylsulfonamido)-1H-indazol-7-yl)-7-(2-(N-methylmethylsulfonamido)phenyl)-4-oxo-3,4-dihydroquinazolin-2-yl)-2-(3,5-difluorophenyl)ethyl)-2-((3bS,4aR)-3-(difluoromethyl)-5,5-difluoro-3b,4,4a,5-tetrahydro-1H-cyclopropa[3,4]cyclopenta[1,2-c]pyrazol-1-yl)acetamide] | 0.49 nM | > 500 nM
Cn1nc(NS(C)(=O)=O)c2c(Cl)ccc(-n3c([C@H](Cc4cc(F)cc(F)c4)NC(=O)Cn4nc(C(F)F)c5c4C(F)(F)[C@@H]4C[C@H]54)nc4cc(-c5cccc(S(=O)(=O)C(C)(C)C)c5)ccc4c3=O)c21 (atropisomer, axis not shown; (P)) [Example 33, N—((S)-1-(7-(3-(tert-butylsulfonyl)phenyl)-(3P)-3-(4-chloro-1-methyl-3-(methylsulfonamido)-1H-indazol-7-yl)-4-oxo-3,4-dihydroquinazolin-2-yl)-2-(3,5-difluorophenyl)ethyl)-2-((3bS,4aR)-3-(difluoromethyl)-5,5-difluoro-3b,4,4a,5-tetrahydro-1H-cyclopropa[3,4]cyclopenta[1,2-c]pyrazol-1-yl)acetamide] | 0.12 nM | > 500 nM
